Consider 1 substance from patent EP4813999A1, “NOVEL PEPTIDE DERIVATIVE AND PHARMACEUTICAL COMPOSITION FOR PREVENTING OR TREATING MACULAR DEGENERATION COMPRISING SAME” (Supadelixir Inc., priority 2023, dated 2026).

Common to all, as to type: cell-based, human
Series [1] concerns HUVECs. The experiment in a line: Cytotoxicity of test substance (CCK-8 cell viability). Conditions: 24, 48 and 72 hours, up to a concentration of 1,000 nM (1 µM), relative to untreated group at 24 hours. Here is the method:
(§1) The anti-angiogenic activity of the test substance (SE101B2L) was evaluated using HUVECs. HUVECs were cultured in CEFOgro-HUVEC basal medium (CEFO Co., Ltd.) supplemented with growth supplements containing vascular endothelial cell growth-related factors and serum (HUVEC supplements, CEFO Co., Ltd.), which was used as vascular endothelial cell growth medium (hereinafter denoted as "growth medium").
HUVECs were seeded into a 96-well plate at 5 × 10^3 cells per well together with 0.1 ml of growth medium. After incubation for one day, the cells were treated with the test substance (SE101B2L) such that the final concentration increased tenfold from 0.001 nM (denoted as log -3) to 10,000 nM (denoted as log 4). Thereafter, test groups were incubated for 24, 48, and 72 hours, and Cell Counting Kit-8 (CCK-8) was added at each predetermined time point, followed by incubation for an additional 2 hours, and absorbance was measured at 450 nm. Cell viability was calculated relative to the absorbance value of the untreated group at 24 hours.

Series [2] has as its system HUVECs. The series is described as follows: VEGF-induced tube formation on Matrigel. Conditions: VEGF 10 ng/ml, test substance 0.1, 1, 10, 100 nM, 24 hours. The procedure: as §1
(§2) The experiment was conducted by dividing the groups into an untreated group, a group treated with VEGF alone, and a group co-treated with VEGF and the test substance (SE101B2L).
First, tube formation ability was confirmed to determine whether the test substance inhibited VEGF-induced angiogenesis. HUVECs were seeded into a Matrigel-coated 48-well plate at 5 × 10^4 cells per well together with 0.5 ml of growth medium. VEGF was added to each VEGF-treated group to a final concentration of 10 ng/ml, while the test substance was added to each test substance-treated group to final concentrations of 0.1, 1, 10, and 100 nM. The test plate was incubated in an incubator with 5% CO2 at 37°C for 24 hours. After 24 hours, the degree of tube formation was observed under a microscope and photographed. The total tube length in each image was measured using the ImageJ program. The results were converted to values relative to the tube length for the untreated group.

In a further series the test system is AKT and ERK. The series is described as follows: VEGF-induced phosphorylation of AKT and ERK (immunoblot). Conditions: HUVECs; VEGF co-treatment; test substance 0.1, 1, 10, 100 nM; 10 minutes. Here is the method:
as §2
Additionally, whether the test substance could regulate the phosphorylation levels of AKT and ERK molecules, which are important in signaling related to VEGF-induced angiogenesis, was tested. Into a 6-well plate containing 2 ml of growth medium, 2 × 10^5 HUVECs were added and seeded, followed by incubation in an incubator with 5% CO2 at 37°C for one day. Subsequently, after washing the cells with phosphate-buffered saline (PBS), incubation was performed for an additional 6 hours using CEFOgro-HUVEC medium containing 1% fetal bovine serum. The prepared cells were divided into an untreated group, a group treated with VEGF alone, and groups co-treated with VEGF and the test substance (0.1, 1, 10, and 100 nM), followed by treatment with the test substance. […] Protein amounts of the cell lysates were measured by a Bradford assay, followed by separation using sodium dodecyl sulfate-polyacrylamide gel electrophoresis (SDS-PAGE). […]

The test system of series [3] is HUVECs. The experiment in a line: VEGF-induced chemotactic cell migration (transwell chamber). Conditions: VEGF 10 ng/ml, test substance 0.1, 1, 10, 100 nM, 3 hours. Here is the method:
as §2
In addition, whether the test substance could inhibit VEGF-induced changes in cell migration ability in HUVECs was confirmed. In terms of cell migration ability, changes in chemotactic cell migration were confirmed using a transwell chamber (24-well plate type). After coating the lower surface of a transwell insert membrane having a diameter of 6.5 mm and a pore size of 8.0 µm with 10 µg of gelatin, 5 × 10^4 cultured HUVECs were seeded into the inserts using 0.1 ml of HUVEC basal medium. The test substance was added to each test substance-treated group to final concentrations of 0.1, 1, 10, and 100 nM, and VEGF, together with HUVEC basal medium, was added to the lower wells configured in a 24-well plate format to a final concentration of 10 ng/ml, followed by incubation in an incubator with 5% CO2 at 37°C for 3 hours. Thereafter, the medium was removed from the inserts of the test groups, and the inserts were fixed using a 10% formalin solution. […] Migrated cells in each test group were photographed, and the number of cells was counted. The number of counted cells was converted to values relative to that of the untreated group, thereby calculating the results.

As for “decylbenzoyl-Cys-Phe-Lys-amide [SE101B2L]”, the “cell viability (cytotoxicity)” value in the series on HUVECs [1] is reported as “no significant difference in cell viability”. In the series on HUVECs [2], the “tube formation ability (total tube length)” value was “reduced by the test substance in a concentration-dependent manner”. Also, the “phosphorylation levels of signaling molecules (AKT, ERK)” value in the series with AKT and ERK is “reduced by the test substance in a concentration-dependent manner”. In the series on HUVECs [3], the “cell migration ability (number of migrated cells)” value is reported as “reduced by the test substance in a concentration-dependent manner”.
